Experimental data reported in patent EP2271651B1, “ISOTHERMAL PROCESS FOR PHOSPHOROMONOCHLORIDITE SYNTHESIS” (Dow Global Technologies LLC, priority 2008, dated 2009).
Where two headings read alike, the source gives them in different places.

What was measured:
[1] = cited from earlier work; for HCl solubility: total pressure of 760 mm Hg (101 kPa)
[2] = Solubility of the aromatic diol in organic solvent (equilibrium solubility method); format: physicochemical; conditions: based on the weight of the solution
Excerpt: The solubility of the aromatic diol in the organic solvent can be measured by using known procedures. For example, the solubility of the aromatic diol in the organic solvent at a specific temperature can be determined by an equilibrium solubility method, which employs a saturated solution of the aromatic diol, obtained by stirring an excess amount of the aromatic diol in the organic solvent at the specific temperature for a sufficient period of time until equilibrium is achieved. Thereafter, the resulting liquid phase saturated solution, the resulting solid phase, or both liquid and solid phases are analyzed by any conventional analytical method to arrive at the solubility of the aromatic diol in the organic solvent.
In this first embodiment, generally, the aromatic diol has a low solubility in the first organic solvent. […] Accordingly, this embodiment generally requires a) a large quantity of the first organic solvent to solubilize essentially all of the aromatic diol, and/or b) preparation and maintenance of the feed solution at an elevated temperature to increase and maintain solubility of the diol in the feed solution. […]

## CCCCCCC [n-Heptane]
[1]; At 10°C
  HCl solubility: 0.02 Mol/mol organic solvent
[1]; At 20°C
  HCl solubility: 0.015 Mol/mol organic solvent

## C1CCOC1 [Tetrahydrofuran]
[1]; at 10°C and a total pressure of 760 mm Hg (101 kPa)
  hydrogen chloride absorbed/dissolved by one mole of solvent: 1.38 mol

## Clc1ccccc1 [Chlorobenzene]
[1]; At 20°C
  HCl solubility: 0.033 Mol/mol organic solvent

## Cc1ccc(C)cc1 [p-Xylene]
[1]; At 10°C
  HCl solubility: 0.08 Mol/mol organic solvent
[1]; At 20°C
  HCl solubility: 0.064 Mol/mol organic solvent

## Cc1cccc(C)c1 [m-Xylene]
[1]; At 20°C
  HCl solubility: 0.071 Mol/mol organic solvent

## CCCCCCCCCC [n-Decane]
[1]; At 10°C
  HCl solubility: 0.028 Mol/mol organic solvent

## Oc1ccccc1-c1ccccc1O [2,2'-biphenol]
[2]; at 19°C
  solubility in toluene: 2.7 percent by weight
[2]; at 40°C
  solubility in toluene: 7.3 percent by weight
